Measured values published in US12364702B2, “Highly active sting protein agonist compound” (ADLAI NORTYE BIOPHARMA CO., LTD., priority 2018, dated 2025).

How the values were obtained:
Type in all cases: cell-based
STING WT variant [1] = target: T1, STING WT variant (Homo sapiens, UniProt Q86WV6); assay: SEAP reporter assay in HEK-Blue ISG KO-STING cells transfected with STING WT variant (Method 1); conditions: compound 7.8 uM, 24 h, SEAP signal vs 0.5% DMSO
T1 construct: host or cells: HEK-Blue ISG KO-STING cells (Invivogen, hkb-kostg)
Outline: (§1)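 HEK-Blue ISG KO-STING cells transfected with 1 ng STING variant plasmid for 24 h at 37 °C, then compound-treated 24 h (0.5% DMSO final). SEAP chemiluminescence read in supernatant; viability by CellTiter-Glo. Values are compound signal relative to 0.5% DMSO.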

STING HAQ variant [2] = target: T2, STING HAQ variant (Homo sapiens, UniProt Q86WV6, G230A/R293Q/R71H); assay: SEAP reporter assay in HEK-Blue ISG KO-STING cells transfected with STING HAQ variant (Method 1); conditions: compound 7.8 uM, 24 h, SEAP signal vs 0.5% DMSO
T2 construct: host or cells: HEK-Blue ISG KO-STING cells (Invivogen, hkb-kostg)
T2 sequence (Q86WV6 whole entry R71H/G230A/R293Q): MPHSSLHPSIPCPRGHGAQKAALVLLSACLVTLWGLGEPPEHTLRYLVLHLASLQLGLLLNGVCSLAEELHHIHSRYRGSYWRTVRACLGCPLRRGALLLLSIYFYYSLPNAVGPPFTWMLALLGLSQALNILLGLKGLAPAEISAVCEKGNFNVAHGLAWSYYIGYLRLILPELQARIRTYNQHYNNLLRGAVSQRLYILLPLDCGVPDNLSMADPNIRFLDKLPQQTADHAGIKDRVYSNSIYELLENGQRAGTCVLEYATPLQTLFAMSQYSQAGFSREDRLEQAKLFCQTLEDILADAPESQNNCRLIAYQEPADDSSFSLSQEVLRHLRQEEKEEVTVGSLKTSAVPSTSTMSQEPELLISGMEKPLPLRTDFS
Outline: as §1

STING = STING (Homo sapiens, UniProt Q86WV6); assay: IFN-β secretion from THP1 by STING activation (hIFNβ ELISA); conditions: THP1 cells; 24 h incubation; IFN-β in supernatant; top dose set according to solubility; read-out: hIFNβ ELISA (EC50)
Chain of STING (Q86WV6 whole entry): as the sequence (Q86WV6 whole entry R71H/G230A/R293Q) above, with H71R, A230G, Q293R counted along it
Outline: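 THP1 cells (2×10^6 cells/ml) exposed 24 h at 37° C, 5% CO2 to 8-point, 3-fold compound dilutions, 0.2% DMSO final, top dose set by solubility. Secreted IFN-β in supernatant measured by human IFNβ ELISA; EC50 from curve fitting.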

STING WT variant [3] = target: T1, STING WT variant; assay: SEAP reporter assay in HEK-Blue ISG KO-STING cells transfected with STING WT variant (Method 2); parameters: key: ratio of compound SEAP signal to 0.5% DMSO; conditions: 1 ng STING vector (WT variant), compound 2.5 uM, 24 h, SEAP signal vs 0.5% DMSO
From the text: (§2) Activation of STING can be determined using a SEAP reporter assay in HEK-Blue™ ISG KO-STING cells (Invivogen, cat #hkb-kostg) transfected with plasmids expressing STING variants (WT & HAQ) (referred to WO2017/175147A1). STING variants (WT & HAQ) vector were constructed based on STING-232H vector (Origene, RC208418). GFP vector (VT2069) was bought from Youbio. The detailed protocol as follows: HEK-Blue™ ISG KO-STING cells were harvest and seeding into 96 well plate and the final cell number was 0.8×10^5 cells/well. Transfections were prepared using Lipofectamine 2000 (Invitrogen, Cat #11668-027) following the manufacturer's instructions (Lipo2000/DNA=1/10), 20 ul of transfection suspension containing 1 ng (WT variant) or 0.0625 ng (HAQ variant) STING vector was added to cell culture plate and incubated at 37° C., 5% CO2 for 24 hours. After 24 hours incubation, compounds were added at proper concentration, the final DMSO concentration was 0.5%. After 24 h incubation, the supernatant was collected to detect SEAP signal using Great EscAPe SEAP chemiluminescence KIT (Clontech, cat #631738) and cells were collected to detect cell viability using CellTiter-Glo Luminescent Cell Viability Assay (Promega, cat #G7573) following the manufacturer's instructions. The data were described by the ratio of the stimulating signal of compounds to 0.5% DMSO.

STING HAQ variant [4] = target: T2, STING HAQ variant; assay: SEAP reporter assay in HEK-Blue ISG KO-STING cells transfected with STING HAQ variant (Method 2); parameters: key: ratio of compound SEAP signal to 0.5% DMSO; conditions: 0.0625 ng STING vector (HAQ variant), compound 5 uM, 24 h, SEAP signal vs 0.5% DMSO
From the text: as §2

Row | Fold change related to DMSO control WT (STING WT variant [1]) | Fold change related to DMSO control HAQ (STING HAQ variant [2]) | EC50 (STING) [µM] | Fold change related to DMSO control WT (STING WT variant [3]) | Fold change related to DMSO control HAQ (STING HAQ variant [4]) | SMILES
1 | 2.29 | 36.93 | 2.1 | 13.65 | 24.13 | CCn1nc(C)cc1C(=O)Nc1nc2cc(C(N)=O)cc(OCCCOC)c2n1CCC[C@H]1COc2cc(C(N)=O)cc3nc(NC(=O)c4cc(C)nn4CC)n1c23 [Example 1, (S)-3-(3-(5-Carbamoyl-2-(1-ethyl-3-methyl-1H-pyrazole-5-carboxamido)-7-(3-methoxypropoxy)-1H-benzo[d]imidazol-1-yl)propyl)-2-(1-ethyl-3-methyl-1H-pyrazole-5-carboxamido)-3,4-dihydro-5-oxa-1,2a-diazaacenaphthylene-7-carboxamide]
2 |  |  | 4.6 | 7.12 | 19.89 | CCn1nc(C)cc1C(=O)Nc1nc2cc(C(N)=O)cc(OCCCNC(=O)CN3CC(OC)C3)c2n1CCC[C@H]1COc2cc(C(N)=O)cc3nc(NC(=O)c4cc(C)nn4CC)n1c23 [Example 43, (S)-3-(3-(5-carbamoyl-2-(1-ethyl-3-methyl-1H-pyrazole-5-carboxamido)-7-(3-(2-(3-methoxyazetidin-1-yl)acetamido)propoxy)-1H-benzo[d]imidazol-1-yl)propyl)-2-(1-ethyl-3-methyl-1H-pyrazole-5-carboxamido)-3,4-dihydro-5-oxa-1,2a-diazaacenaphthylene-7-carboxamide]
3 |  |  | > 6.9 | 10.68 | 12.84 | CCn1nc(C)cc1C(=O)Nc1nc2cc(C#N)cc(OCCCNC(=O)CN3CCOCC3)c2n1CCC[C@H]1COc2cc(C(N)=O)cc3nc(NC(=O)c4cc(C)nn4CC)n1c23 [Example 46, (S)-3-(3-(5-cyano-2-(1-ethyl-3-methyl-1H-pyrazole-5-carboxamido)-7-(3-(2-morpholinoacetamido)propoxy)-1H-benzo[d]imidazol-1-yl)propyl)-2-(1-ethyl-3-methyl-1H-pyrazole-5-carboxamido)-3,4-dihydro-5-oxa-1,2a-diazaacenaphthylene-7-carboxamide]
